Results taken from US12194024B2, “Pharmaceutical composition of MDM2 inhibitor and use thereof for preventing and/or treating disease” (ASCENTAGE PHARMA (SUZHOU) CO., LTD., priority 2019, dated 2025).

Legend:
[1] = tested on: human OCI-AML-3 AML xenograft tumor; experiment: Subcutaneous OCI-AML-3 AML mouse xenograft tumor model; format: in vivo, NOD SCID mice; details: Compound 2 50 mg/kg orally q2d, Azacitidine 2 mg/kg i.v., Decitabine 1 mg/kg i.v.; for Relative tumor volume (RTV, Mean ± SEM): d15, vehicle 16.5 ± 4.1
Procedure: For subcutaneous model, OCI-AML-3 cells (1×10^6) are injected subcutaneously into the right side of the abdomen of 6- to 8-week-old mice. About 10 days after the cell inoculation, the mice are randomly divided into groups based on the primary tumor size achieving about 100-150 mm^3 of average tumor volume.
The tumor diameter is measured twice using a vernier caliper each week. The computational formula of the tumor volume (TV) is: TV=a×b^2/2. In the computational formula, a and b represent the length and width of the tumor measurement respectively. The computational formula of the relative tumor volume (RTV) is: RTV=VtN1. In the computational formula, V1 is the tumor volume when being grouped and administered, and Vt is the tumor volume when being measured at a certain day after the administration.
The tumor remission rate (%) is derived by dividing the number of SD (Stable Disease), PR (Partial response) and CR (Complete response) appearing in the tumor bearing mice after treatment by the total number of mice in the group×100%.
The synergistic analysis uses the following formula (reference can be made to Gould S E et al., Translational value of mouse models in oncology drug development, Nature medicine, 2015 21, 431-439): synergistic factor=((A/C)×(B/C))/(AB/C); A=RTV value of the A drug alone group; B=RTV value of the B drug alone group; C=RTV value of the vehicle control group, AB=RTV value of the AB combined group (Clarke R., Issues in experimental design and endpoint analysis in the study of experimental cytotoxic agents in vivo in breast cancer and other models[J], Breast Cancer Research & Treatment, 1997, 46 (2-3):255-278).
For subcutaneous model, OCI-AML-3 cells (1×10^6) are injected subcutaneously into the right side of the abdomen of 6- to 8-week-old mice. About 10 days after the cell inoculation, the mice are randomly divided into groups based on the primary tumor size achieving about 100-150 mm^3 of average tumor volume. Compound 2 is administered alone or in combination (50 mg/kg, is taken orally, every other day for 15 days) and Aza (2 mg/kg, intravenous injection each day for 7 days) or Dec (1 mg/kg, intravenous injection each day for 7 days). The tumor volume is measured twice using a vernier caliper each week and is represented by following formula in mm^3: V=0.5a×b^2; in the formula, a and b are the long diameter and short diameter of the tumor respectively. […] RTV=VtN1; wherein V1 and Vt are the average tumor volume on the first day (day 1) in the treatment, and the average tumor volume of a certain time point (day t) respectively.
Azacitidine is administered following 2 mg/kg, caudal vein injection, qd×7d, drug withdrawal 7 days, then qd×2 day regimens for seven days (corresponding to the number 68 regimen in table 7).

[2] = tested on: MOLM-13 cells; experiment: Expression of proteins in treated MOLM-13 cells; format: cell-based, human; details: for γ-H2AX expression (DNA damage): MOLM-13 cells
Description: Therefore, we evaluate the protein changes involving these identified signaling pathways. […] DEC and AZA are low methylation drugs inducing low DNA methylation in cells by inhibiting the function of methyltransferase I (DNMT1). Many studies indicate that DNMT1 forms a complex with UHRF1 and HDAC1 proteins in tumor cells, which binds and inhibits the expression of various […] (such as P16INK4A, P14ARF and P21) promoters, and promotes tumor growth. Cytarabine is a pyrimidine nucleoside analogue, which induces DNA damage, further activates ATM/ATR-P53-P21 signal cascades, inhibits DNA synthesis in cells and interferes with cell proliferation.
Based on above evidences, we further detect the regulating effect of treatment with compound 2 in combination with low methylation drugs DEC and AZA or drug Ara-C on P53, demethylation marker protein DNMT1 and common target protein P21, and the expression of apoptosis marker protein, lytic PARP-1. […] RG-7388 is introduced as the comparison of present experiment. […] DNA damage further activates P53 and P21.
B-actin is used for confirming that the loaded proteins are the same. […] Its results represent three independent results.

[3] = tested on: human MOLM-13 (AML) xenograft tumor; experiment: Systemic MOLM-13 AML mouse xenograft model; format: in vivo, NOD SCID mice; details: Compound 2 30 mg/kg q2d 21 days, Azacitidine 1.5 mg/kg qd seven days
Description: The comparison among three or more groups uses one-way ANOVA. If the F value has a significant difference, multiple comparisons should be carried out after the ANOVA analysis. All data analysis uses SPSS 18.0. Prism (the sixth version) is used for graphing. Attune N×T flow cytometer (Thermo Fisher Scientific Inc.) is used for analyzing tumor infiltrating lymphocytes. Data acquisition and analysis use Analyst Software 1.6.3 work station (AB sciex, Ontario, Canada). For MOLM-13 systemic model, the death date of the last mouse is used for analyzing the median total survival and generating the Kaplan-Meier curve. Logarithmic rank test and Bonferroni multiple test are used for comparing the survival curves of different treatment groups.
For systemic AML model, six- to eight-week-old female NOD SCID mice are pretreated with cyclophosphamide (150 mg/kg, intraperitoneally) continuously for two days. Then the MOLM-13 systemic AML xenograft model is established by inoculating 1×10^7 cells into the caudal vein intravenously.
For systemic AML model, the six- to eight-week-old female NOD SCID mice are pretreated with cyclophosphamide (150 mg/kg, intraperitoneally) continuously for two days. Then the MOLM-13 systemic AML xenograft model is established by inoculating 1×10^7 cells into the caudal vein intravenously. Cells grow 3 days, then are randomly divided into groups for treatment of a single drug or drugs in combination using a carrier, compound 2 (50 mg/kg, is taken orally each day for 7 days), and Aza (1.5 mg/kg, intravenous injection each day for 7 days). In the treatment process and after the treatment is completed, the mice are monitored for the occurrence of hind leg paresis (HLP) or the abdominal swelling caused by disease progression, and a body weight loss >20%.
A systemic MOLM-13 mouse xenograft model is established, and the anti-leukemia effect of compound 2 following the administration regimen of 80 mg/kg dosage, orally (po), and once every two days (q2d) is evaluated in the model (corresponding to the number 57 regimen in table 7). The experiment has two groups, and 15 animals in each group, in one group, 5 animals are used for the analysis of the proportion of CD45+ AML cells, and the remaining 10 animals are used for recording the living condition of the mice. 18 days after the cell inoculation, according to the experimental regimen, 5 animals are selected randomly from each group, bone marrow and spleen are collected, the proportion of human CD45+ AML cells in bone marrow and spleen is analyzed using flow cytometry to evaluate the disease burden of animals.
Systemic tumor model is established by inoculating MOLM-13 tumor cells through caudal vein, the administration starts on the third day after the cell inoculation, and the day of the administration is defined as the first day. Compound 2 is administered following 30 mg/kg, q2d regimens for 21 days. Azacitidine is administered following 1.5 mg/kg, qd regimens for seven days (corresponding to the number 81 regimen in table 7). […]

[4] = MOLM-13, DEC 100 nM, AZA 3 μM, 48 hours

Compound | T/C value (%) (d15) [1] | Relative tumor volume (RTV, Mean ± SEM) [1] | expression of DNMT1 [2, 4] | γ-H2AX expression (DNA damage) [2] | Median survival ([3]; vehicle 16 days) | Prolonged survival ([3]; versus vehicle) | expression of P53 and P21 proteins ([2]; MOLM-13, compound 2 40 nM, RG-7388 40 nM, DEC 100 nM, AZA 3 μM, 48 hours)
Nc1ncn([C@H]2C[C@H](O)[C@@H](CO)O2)c(=O)n1 [Decitabine] | 64.9% | 10.7 ± 1.7 | almost completely eliminates DNMT1 | increased expression of γ-H2AX | – | – | –
Nc1ncn([C@@H]2O[C@H](CO)[C@@H](O)[C@H]2O)c(=O)n1 [Azacitidine] | 56.6% | 9.3 ± 3.2 | almost completely eliminates DNMT1 | increased expression of γ-H2AX | 24 days | 8 days | –
Nc1ccn([C@@H]2O[C@H](CO)[C@@H](O)[C@@H]2O)c(=O)n1 [Cytarabine] | – | – | – | increased expression of γ-H2AX | – | – | significant up-regulation effect on P21
